# Experimental data reported in PubChem BioAssay (NCI).
#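 Following 48 hours of exposure in 96-well plates, responses at five concentrations were used to interpolate endpoints linearly. GI50: concentration for 50% inhibition of growth. TGI is the concentration that stops growth completely.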
# Experiments:
# Assay in all cases: inhibition of tumour cell growth, NCI panel, 48 h
# MOLT-4 leukemia = test system: MOLT-4 leukemia
# SK-MEL-5 melanoma = test system: SK-MEL-5 melanoma
# KM12 colon = test system: KM12 colon
# ACHN renal = test system: ACHN renal
# UACC-62 melanoma = test system: UACC-62 melanoma
# DLD-1 colon = test system: DLD-1 colon
# M19-MEL melanoma = test system: M19-MEL melanoma
# HCT-116 colon = test system: HCT-116 colon
# SNB-19 CNS = test system: SNB-19 CNS
# SK-OV-3 ovarian = test system: SK-OV-3 ovarian
Structure (SMILES),TGI (MOLT-4 leukemia) [µM],TGI (SK-MEL-5 melanoma) [µM],TGI (KM12 colon) [µM],TGI (ACHN renal) [µM],TGI (UACC-62 melanoma) [µM],TGI (DLD-1 colon) [µM],TGI (M19-MEL melanoma) [µM],TGI (HCT-116 colon) [µM],TGI (SNB-19 CNS) [µM],TGI (SK-OV-3 ovarian) [µM],GI50 (MOLT-4 leukemia) [µM],GI50 (SK-MEL-5 melanoma) [µM],GI50 (KM12 colon) [µM],GI50 (UACC-62 melanoma) [µM],GI50 (DLD-1 colon) [µM],GI50 (M19-MEL melanoma) [µM],GI50 (HCT-116 colon) [µM],GI50 (SNB-19 CNS) [µM],GI50 (SK-OV-3 ovarian) [µM],GI50 (ACHN renal) [µM]
CC(C)(C)OC(=O)N[C@H]1CC2(C=C(Cl)C(=O)C(Cl)=C2)OC1=O,15.7,38.5,32,28.2,30.6,13.4,30.9,28,> 100,> 46.4,–,–,–,–,–,–,–,–,–,–
C[Si](C)(C)C1(Sc2ccccc2)SCCCS1,85.1,> 100,> 100,> 100,> 100,> 100,> 100,> 100,> 100,> 100,–,–,–,–,–,–,–,–,–,–
OCc1ccc(-c2ccc(-c3ccc(CO)s3)o2)s1,71.5,69.7,85.3,> 94.1,0.154,> 73.4,> 100,45.2,> 100,39.2,–,–,–,–,–,–,–,–,–,–
COc1ccc(S(=O)(=O)NNS(C)(=O)=O)cc1,> 100,> 100,> 100,> 100,> 100,> 100,> 100,> 100,> 100,–,–,–,–,–,–,–,–,–,–,–
CCCCCCN(CCCCCC)C(=O)Cc1c2n(c3ccccc13)Cc1ccccc1-2,> 100,> 100,> 100,> 100,> 100,> 100,> 100,> 100,> 100,> 100,–,–,–,–,–,–,–,–,–,–
Cc1ccc(NC(=O)c2cc3cc(N=Nc4ccccc4C(=O)O)ccc3oc2=O)cc1,> 100,> 100,> 100,> 100,85,> 100,–,> 100,> 100,> 100,–,–,–,–,–,–,–,–,–,–
CCOC(=O)CC(=O)ON(C)C(C)=O,> 100,> 100,> 100,> 100,> 100,> 100,> 100,> 100,> 100,> 100,–,–,–,–,–,–,–,–,–,–
c1ccc(COc2cccc3ccc[n+](Cc4ccccc4)c23)cc1,51.8,–,15.7,52.7,20.1,> 100,16.3,–,> 100,73.7,–,–,–,–,–,–,–,–,–,–
C/C(=N\NC(=S)NC(CCC(=O)O)C(=O)O)c1ccccn1 (stereo not given),> 100,> 100,> 100,> 100,> 100,> 100,> 100,> 100,> 100,> 100,–,–,–,–,–,–,–,–,–,–
CN(C)c1ccc(/C=C(\NC(=O)c2ccccc2)c2nc3ncncc3[nH]2)cc1,> 100,> 100,> 100,> 100,> 100,> 100,> 100,–,> 100,> 100,–,–,–,–,–,–,–,–,–,–
CC(C)=Cc1cc(C(=O)Nc2ccc(Cl)c(Cl)c2)nc(N)n1,> 100,> 100,> 100,> 100,> 100,> 100,> 100,> 100,> 100,–,–,–,–,–,–,–,–,–,–,–
C#CC1(O)CCC2C3CCc4cc(Oc5nc(F)nc(-c6c7ccccc7c7sc8ccccc8n67)n5)ccc4C3CC[C@@]21C (stereo not given in full),> 100,> 100,> 100,> 100,> 100,> 100,> 100,> 100,> 100,–,–,–,–,–,–,–,–,–,–,–
CCOC(=O)NC(=O)c1cn(CCCO)c(=O)[nH]c1=O,> 100,> 100,> 100,> 100,> 100,> 100,> 100,> 100,> 100,> 100,–,–,–,–,–,–,–,–,–,–
[Cl-].[La+3].[O-]/N=C(\c1ccccc1)c1ccccn1.[O-]/N=C(\c1ccccc1)c1ccccn1.[O-]/N=C(\c1ccccc1)c1ccccn1,> 100,> 76.4,> 100,–,> 100,> 100,50,> 100,> 100,> 100,37.6,28.6,82,33.3,43.5,22,44,50.5,50.8,–
COc1cc2c(c(OC)c1OC)-c1ccc(OC)c(=O)cc1C(NC(=O)c1ccc(N=[N+]=[N-])cc1)CC2 (stereo not given),9.82,1.95,0.0786,> 100,31.1,> 100,> 73.2,18.2,> 100,–,–,–,–,–,–,–,–,–,–,–
Clc1ccc(C(c2ccc(Cl)cc2)c2ccccn2)cc1,56.6,33,42.5,45.9,33.4,83.5,> 100,–,51.5,86.5,–,–,–,–,–,–,–,–,–,–
Nc1ncnc2n[nH]c(Nc3ccc(F)cc3)c12,> 100,> 100,86.3,> 100,> 100,–,–,31.9,> 100,> 100,31.7,19.6,20.3,20.8,–,–,12.3,61.7,6.93,5.46
COC(=O)C1=C(C)NC(C)=C(C(=O)OCCCN2CCC(c3ccccc3)(c3ccccc3)CC2)C1c1cccc([N+](=O)[O-])c1 (stereo not given),10,3.16,3.21,3.05,3.24,–,–,2.86,3.24,12.9,–,–,–,–,–,–,–,–,–,–
O=C(Nc1ccc(Cl)cc1)c1cccc(NC2=C(Cl)C(=O)N(Cc3ccccc3)C2=O)c1,24.5,20.9,> 100,27.5,22.9,–,–,19.7,45.9,> 100,12.1,8.15,48.5,11,–,–,6.29,17.6,29.6,14.4
CCCC(=O)OC1CC(n2cc(F)c(=O)[nH]c2=O)OC1COP(=O)(OCC(Cl)(Cl)Cl)OCC(Cl)(Cl)Cl (stereo not given),> 62.1,> 100,> 100,> 96,> 100,–,–,> 51.1,> 100,> 31.6,–,–,–,–,–,–,–,–,–,–
Cn1c2ccccc2c2cc(-c3ccccc3)c3c(c21)C(=O)c1ccccc1C3=O,92.7,–,75.8,–,30.1,31,6.47,36.3,> 100,> 100,–,–,–,–,–,–,–,–,–,–
